Experimental data from ChEMBL document CHEMBL5608221, “Innovative Therapeutic Approaches Targeting K-Ras: Analysis of Macrocyclic Compounds, Peptidomimetics, and Pyridopyrimidine Inhibitors” (ACS Med Chem Lett, 2024).

molecular target: GTPase KRas (Homo sapiens, UniProt P01116, G12V); assay: Inhibition of GDP bound KRAS G12V mutant (unknown origin)
Sequence (P01116 whole entry G12V): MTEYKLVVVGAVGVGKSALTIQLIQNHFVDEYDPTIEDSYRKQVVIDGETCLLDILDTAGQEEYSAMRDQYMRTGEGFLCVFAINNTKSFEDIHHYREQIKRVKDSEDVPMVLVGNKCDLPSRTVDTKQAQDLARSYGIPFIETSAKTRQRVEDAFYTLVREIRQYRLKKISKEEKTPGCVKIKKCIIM

SMILES	IC50 [nM]
C#Cc1c(F)ccc2cc(O)cc(-c3ncc4c(N(C)[C@H]5C[C@@H]5F)nc(OCC56CCCN5CC(=C)C6)nc4c3F)c12.OCC(F)(F)F (some centres not stated)	0.371
C#Cc1c(F)ccc2cc(N)cc(-c3ncc4c(N(C)[C@H]5C[C@@H]5F)nc(OCC56CCCN5CC(=C)C6)nc4c3F)c12.OCC(F)(F)F (some centres not stated)	1.99
[2H]C([2H])([2H])N(c1nc(OC([2H])([2H])C23CCC([2H])([2H])N2C[C@]([2H])(F)C3)nc2c(F)c(-c3cc(O)cc4ccc(F)c(C#C)c34)ncc12)[C@H]1C[C@@H]1F (some centres not stated)	0.216
[2H]C([2H])([2H])N(c1nc(OC([2H])([2H])C23CCC([2H])([2H])N2C[C@@]([2H])(F)C3)nc2c(F)c(-c3cc(O)cc4ccc(F)c(C#C)c34)ncc12)[C@H]1C[C@@H]1F (some centres not stated)	0.689

Continued, values first:

IC50 [nM]	SMILES
0.589	C#Cc1c(F)ccc2cc(O)cc(-c3ncc4c(N(C)[C@H]5C[C@@H]5F)nc(OC[C@]56CCCN5CC(=C)C6)nc4c3F)c12
0.405	C#Cc1c(F)ccc2cc(O)cc(-c3ncc4c(N(C)[C@H]5C[C@@H]5F)nc(OCC56CCCN5CC(=C)C6)nc4c3F)c12 (some centres not stated)
0.246	C#Cc1c(F)ccc2cc(O)cc(-c3ncc4c(N(C)[C@H]5C[C@@H]5F)nc(OC[C@@]56CCCN5CC(=C)C6)nc4c3F)c12
